Source: the NIST ThermoML archive (doi:10.1021/acs.jced.8b00201)
± gives the expanded uncertainty stated by the source.

Experiment: xn = mol fraction of the nth substance listed
Settings: 100 kPa, Liquid; for viscosity: Concentric cylinders viscometry; for mass density: Vibrating tube method

O=C1CCCCC1 [cyclohexanone] + CCCCCO
Settings | mass density [kg/m3] | viscosity [mPa·s]
293.15 K, x1 = 0.0803 | 825.1 ± 20 | 3.57 ± 0.18
293.15 K, x1 = 0.1609 | 835.7 ± 20 | 3.16 ± 0.16
293.15 K, x1 = 0.2403 | 846.2 ± 20 | 2.8 ± 0.2
293.15 K, x1 = 0.3473 | 860.4 ± 20 | 2.41 ± 0.12
293.15 K, x1 = 0.4404 | 872.7 ± 20 | 2.17 ± 0.11
293.15 K, x1 = 0.5619 | 889 ± 20 | 1.96 ± 0.1
293.15 K, x1 = 0.6501 | 900.9 ± 20 | 1.88 ± 0.09
293.15 K, x1 = 0.747 | 914 ± 20 | 1.87 ± 0.09
293.15 K, x1 = 0.8494 | 928 ± 20 | 1.98 ± 0.1
293.15 K, x1 = 0.9404 | 940.5 ± 20 | 2.12 ± 0.11
293.15 K, x1 = 1 | 948.8 ± 20 | 2.3 ± 0.12
298.15 K, x1 = 0.0803 | 821.1 ± 20 | 3.1 ± 0.16
298.15 K, x1 = 0.1609 | 831.6 ± 20 | 2.77 ± 0.14
298.15 K, x1 = 0.2403 | 841.9 ± 20 | 2.49 ± 0.13
298.15 K, x1 = 0.3473 | 855.8 ± 20 | 2.15 ± 0.11
298.15 K, x1 = 0.4404 | 868 ± 20 | 1.96 ± 0.1
298.15 K, x1 = 0.5619 | 884.1 ± 20 | 1.8 ± 0.09
298.15 K, x1 = 0.6501 | 895.8 ± 20 | 1.74 ± 0.09
298.15 K, x1 = 0.747 | 908.8 ± 20 | 1.74 ± 0.09
298.15 K, x1 = 0.8494 | 922.6 ± 20 | 1.83 ± 0.09
298.15 K, x1 = 0.9404 | 934.9 ± 20 | 1.97 ± 0.1
298.15 K, x1 = 1 | 943.1 ± 20 | 2.09 ± 0.11
303.15 K, x1 = 0.0803 | 817.3 ± 20 | 2.71 ± 0.14
303.15 K, x1 = 0.1609 | 827.6 ± 20 | 2.44 ± 0.12
303.15 K, x1 = 0.2403 | 837.8 ± 20 | 2.2 ± 0.11
303.15 K, x1 = 0.3473 | 851.6 ± 20 | 1.94 ± 0.1
303.15 K, x1 = 0.4404 | 863.7 ± 20 | 1.77 ± 0.09
303.15 K, x1 = 0.5619 | 879.6 ± 20 | 1.63 ± 0.08
303.15 K, x1 = 0.6501 | 891.2 ± 20 | 1.58 ± 0.08
303.15 K, x1 = 0.747 | 904.1 ± 20 | 1.58 ± 0.08
303.15 K, x1 = 0.8494 | 917.8 ± 20 | 1.67 ± 0.08
303.15 K, x1 = 0.9404 | 930.1 ± 20 | 1.78 ± 0.09
303.15 K, x1 = 1 | 938.2 ± 20 | 1.91 ± 0.1
308.15 K, x1 = 0.0803 | 813.4 ± 20 | 2.38 ± 0.12
308.15 K, x1 = 0.1609 | 823.6 ± 20 | 2.14 ± 0.11
308.15 K, x1 = 0.2403 | 833.7 ± 20 | 1.95 ± 0.1
308.15 K, x1 = 0.3473 | 847.4 ± 20 | 1.73 ± 0.09
308.15 K, x1 = 0.4404 | 859.5 ± 20 | 1.6 ± 0.1
308.15 K, x1 = 0.5619 | 875.3 ± 20 | 1.49 ± 0.08
308.15 K, x1 = 0.6501 | 886.8 ± 20 | 1.46 ± 0.07
308.15 K, x1 = 0.747 | 899.6 ± 20 | 1.46 ± 0.07
308.15 K, x1 = 0.8494 | 913.2 ± 20 | 1.54 ± 0.08
308.15 K, x1 = 0.9404 | 925.5 ± 20 | 1.64 ± 0.08
308.15 K, x1 = 1 | 933.5 ± 20 | 1.75 ± 0.09
313.15 K, x1 = 0.0803 | 809.6 ± 20 | 2.08 ± 0.1
313.15 K, x1 = 0.1609 | 819.7 ± 20 | 1.9 ± 0.1
313.15 K, x1 = 0.2403 | 829.8 ± 20 | 1.73 ± 0.09
313.15 K, x1 = 0.3473 | 843.4 ± 20 | 1.54 ± 0.08
313.15 K, x1 = 0.4404 | 855.3 ± 20 | 1.43 ± 0.07
313.15 K, x1 = 0.5619 | 871 ± 20 | 1.34 ± 0.07
313.15 K, x1 = 0.6501 | 882.4 ± 20 | 1.32 ± 0.07
313.15 K, x1 = 0.747 | 895.1 ± 20 | 1.33 ± 0.07
313.15 K, x1 = 0.8494 | 908.7 ± 20 | 1.4 ± 0.07
313.15 K, x1 = 0.9404 | 920.8 ± 20 | 1.5 ± 0.08
313.15 K, x1 = 1 | 928.8 ± 20 | 1.6 ± 0.08
318.15 K, x1 = 0.0803 | 805.7 ± 20 | 1.84 ± 0.09
318.15 K, x1 = 0.1609 | 815.7 ± 20 | 1.68 ± 0.08
318.15 K, x1 = 0.2403 | 825.6 ± 20 | 1.53 ± 0.08
318.15 K, x1 = 0.3473 | 839.1 ± 20 | 1.38 ± 0.07
318.15 K, x1 = 0.4404 | 851 ± 20 | 1.29 ± 0.07
318.15 K, x1 = 0.5619 | 866.6 ± 20 | 1.21 ± 0.06
318.15 K, x1 = 0.6501 | 878.1 ± 20 | 1.19 ± 0.06
318.15 K, x1 = 0.747 | 890.7 ± 20 | 1.21 ± 0.06
318.15 K, x1 = 0.8494 | 904.3 ± 20 | 1.28 ± 0.06
318.15 K, x1 = 0.9404 | 916.4 ± 20 | 1.37 ± 0.07
318.15 K, x1 = 1 | 924.4 ± 20 | 1.46 ± 0.07
323.15 K, x1 = 0.0803 | 801.9 ± 20 | 1.65 ± 0.08
323.15 K, x1 = 0.1609 | 811.9 ± 20 | 1.52 ± 0.08
323.15 K, x1 = 0.2403 | 821.8 ± 20 | 1.4 ± 0.07
323.15 K, x1 = 0.3473 | 835.3 ± 20 | 1.27 ± 0.06
323.15 K, x1 = 0.4404 | 847.1 ± 20 | 1.19 ± 0.06
323.15 K, x1 = 0.5619 | 862.8 ± 20 | 1.21 ± 0.06
323.15 K, x1 = 0.6501 | 874.2 ± 20 | 1.107 ± 0.056
323.15 K, x1 = 0.747 | 886.9 ± 20 | 1.13 ± 0.06
323.15 K, x1 = 0.8494 | 900.5 ± 20 | 1.19 ± 0.06
323.15 K, x1 = 0.9404 | 912.7 ± 20 | 1.27 ± 0.06
323.15 K, x1 = 1 | 920.7 ± 20 | 1.34 ± 0.07
